Experimental data published in publication PMC8391236, “Effect of Pterostilbene, a Natural Derivative of Resveratrol, in the Treatment of Colorectal Cancer through Top1/Tdp1-Mediated DNA Repair Pathway” (Cancers, 2021).

Columns and labels:
siRNA-Tdp1 CL187 cells = assay: Cell viability of Tdp1-silenced cells; type: cell-based, Human
Experimental: PTE or RE were dissolved in DMSO and diluted with culture medium to 1–100 μM. The final concentration of DMSO was less than 0.1%, and 0.1% DMSO as negative control. […] Exponentially growing cells were seeded in 96-well plates (5 × 10^3 cells/well) for 12 h. Various drugs were added separately and incubated for 24, 48, and 72 h. Cell viability was determined by CCK-8 (Beyotime Biotechnology, Shanghai, China) assay.

HFL-1 = assay: Proliferation of non-tumor cells (CCK-8); type: cell-based; details: Homo sapiens, HFL1
Experimental: The final concentration of DMSO was less than 0.1%, and 0.1% DMSO as negative control. CPT, as Top1 inhibitor, was diluted to 0.5 μM [36, 37], and FM, as Tdp1 inhibitor was diluted to 25 μM [38]. Exponentially growing cells were seeded in 96-well plates (5 × 10^3 cells/well) for 12 h. Various drugs were added separately and incubated for 24, 48, and 72 h. Cell viability was determined by CCK-8 (Beyotime Biotechnology, Shanghai, China) assay. […]
The drug concentration required for inhibiting cell proliferation by 50% (IC50) was determined by interpolation from dose-response curves.

CL187 cells = assay: Apoptosis by flow cytometry (Annexin V-FITC/PI); type: cell-based, Human; details: 48 h
Experimental: Exponentially growing CL187 cells were seeded in 6-well plates (1.2 × 10^6 cells/well) until a well was filled with cells. The RE or PTE at various concentrations were added separately into plate wells and incubated with cells for 48 h. The incubated cells were collected and treated by Annexin V-FITC/PI Apoptosis Detection Kit. The stained cells were analyzed with a flow cytometer (Becton-Dickinson, Franklin Lakes, NJ, USA), and data analyses were performed with BD Cell Quest^TM pro 6.0..

Top1 [1] = assay: Western blot of Top1 protein in cells; type: cell-based, Human; details: 6 h
Experimental: CL187 cells were treated with RE or PTE for 6 or 12 h, collected, and placed into lysis buffer (KeyGEN BioTECH, Nanjing, China). The total protein content in the cell lysates was measured using a BCA kit. Equivalent amount of total protein (30 μg) was loaded onto 10% SDS-PAGE gel. Electrophoresis was performed at 80 V for 25 min. After the sample went through concentrated gel, the voltage was adjusted to 120 V. Electrophoresis was stopped when the bromophenol blue band approached the bottom of the gel. After being transferred to PVDF membranes, the samples were incubated separately with 3 types of primary antibodies Top1, Tdp1, and P53 rabbit mAb (CST, Boston, MA, USA), followed by the incubation with secondary antibody goat anti-rabbit IgG (HRP)-conjugated (1:3000). ECL kit (New Cell and Molecular Biotech, Suzhou, China) was used for color development, and the images were collected by the gel imaging system (Tanon-5200, Shanghai, China).

Top1 [2] = target: T1, Top1 (Homo sapiens, UniProt P11387); assay: Direct Top1 enzyme activity (DNA relaxation) assay; type: biochemical; details: gel electrophoresis
T1 construct: purchased TopoGEN, Buena Vista, CO, USA
T1 sequence (P11387 1-765): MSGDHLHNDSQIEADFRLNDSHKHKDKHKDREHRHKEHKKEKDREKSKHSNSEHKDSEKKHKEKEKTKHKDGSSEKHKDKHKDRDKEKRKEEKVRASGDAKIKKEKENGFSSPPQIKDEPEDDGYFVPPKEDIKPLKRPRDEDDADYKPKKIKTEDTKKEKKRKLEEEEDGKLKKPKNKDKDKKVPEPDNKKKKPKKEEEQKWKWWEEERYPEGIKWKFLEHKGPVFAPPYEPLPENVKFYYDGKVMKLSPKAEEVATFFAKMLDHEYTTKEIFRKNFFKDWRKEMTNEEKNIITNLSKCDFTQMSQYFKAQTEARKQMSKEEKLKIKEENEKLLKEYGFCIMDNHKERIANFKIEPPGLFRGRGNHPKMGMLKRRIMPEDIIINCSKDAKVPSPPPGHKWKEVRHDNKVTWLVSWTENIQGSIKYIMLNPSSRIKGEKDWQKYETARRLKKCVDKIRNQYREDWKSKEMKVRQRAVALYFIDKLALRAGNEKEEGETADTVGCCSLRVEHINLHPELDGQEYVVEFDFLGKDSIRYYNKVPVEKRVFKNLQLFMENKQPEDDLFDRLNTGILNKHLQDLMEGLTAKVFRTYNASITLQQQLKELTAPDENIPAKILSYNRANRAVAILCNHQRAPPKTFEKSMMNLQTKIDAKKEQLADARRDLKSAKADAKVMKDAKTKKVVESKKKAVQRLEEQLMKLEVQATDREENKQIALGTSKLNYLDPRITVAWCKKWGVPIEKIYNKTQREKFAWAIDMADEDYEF
Experimental: Different concentrations of the drug solution were prepared. The solvent was used as negative control group, and CPT (50 μM) was used as the positive control group. Each sample included 2 units of Top1 (TopoGEN, Buena Vista, CO, USA) and 250 ng super helical DNA (pHOT-1, TopoGEN, Buena Vista, CO, USA). The samples were incubated for 30 min at 37 °C, and then the reaction was stopped with SDS. After digestion with proteinase K (50 μg/mL, 60 min at 37 °C), samples were separated through electrophoresis (1% agarose gel). The electrophoresis was conducted at 180 V constant pressure for 20 min. The gel was immersed in the dye without EB for 30 min, and the images were collected by gel imaging system (Tanon-1600B, Shanghai, China).

Top1 in CL187 cells = Top1 in CL187 cells (Homo sapiens, UniProt P11387); assay: Intracellular Top1 enzyme activity assay; type: cell-based; parameters: endogenous in cells; host or cells: CL187 cells (nuclear, mitochondrial and cytoplasmic extracts); details: CL187 cells treated 6 h; CPT at 50 μM
Experimental: CL187 cells were treated with different concentrations of drugs for 6 h. The supernatant was discarded, and the cells were collected. The extracts of cytoplasm, mitochondria, and nucleus were obtained by the same method as described in Section 2.4.7. The protein concentration of each extract was detected by BCA kit. Enzyme activity reaction was carried out by using 125 ng super helical DNA (pHOT-1) and cell extract. The protein concentration of the extract was guaranteed to be the same in each group. The mixture solution of the pHOT-1 and the cell extract was added into the reaction buffer and incubated for 30 min at 37 °C. The reaction was terminated with loading buffer. The agarose gel electrophoresis was performed, and the images were collected.

Work on COc1cc(/C=C/c2ccc(O)cc2)cc(OC)c1 [PTE, 3,5-dimethoxy-4′-hydroxy-trans-stilbene] yielded an IC50 (siRNA-Tdp1 CL187 cells; Homo sapiens, 24 h, siRNA-Tdp1 CL187, 24 h) of 74.2 ± 21.8 µM, an IC50 (siRNA-Tdp1 CL187 cells; Homo sapiens, 48 h, siRNA-Tdp1 CL187, 48 h) of 24.8 ± 4.62 µM and an IC50 (siRNA-Tdp1 CL187 cells; Homo sapiens, 72 h, siRNA-Tdp1 CL187, 72 h) of 18.4 ± 3.78 µM. For the same compound, the IC50 (siRNA-Tdp1 CL187 cells; siRNA-Tdp1 CL187, 72 h) was about 20 µM, the IC50 (HFL-1; HFL-1, 24 h) was 339 µM and the IC50 (HFL-1; HFL-1, 48 h) was 315 µM. The IC50 (HFL-1; HFL-1, 72 h) was 130 µM, the “apoptosis rate (early and late apoptotic cells)” value (“apoptosis rate” for short) (CL187 cells; CL187, 10 μM) was 28.95% and the “apoptosis rate” value (CL187 cells; CL187, 20 μM) was 29.69%. The “apoptosis rate” value (CL187 cells; CL187, 50 μM) was 25.76%, the Top1 protein content (Top1 [1]; Tdp1-over CL187 cells) was “reduced in dese-dependent manner” and the Top1 protein content (Top1 [1]; siRNA-Tdp1 CL187 cells) was “significantly decreased”. For the same compound, the Top1 protein content (Top1 [1]; wild-type CL187 cells) was “decreased in PTE treatment group, but neither in dese-dependent and significant manner”, the “inhibition of Top1 enzyme activity (SC DNA relaxation)” value (Top1 [2]; 30 min incubation, CPT at 50 uM) was “had the ability to inhibit Top1 enzyme activity in a dose-dependent manner” and the “concentration exhibiting the same inhibitory effect on Top1 enzyme activity” value (Top1 [2]; relaxation of supercoiled pHOT-1 DNA, 30 min) was 20 µM. For the same compound, the “Top1 enzyme activity in the nucleus” value (Top1 in CL187 cells) was “significantly inhibited”.
